Assay results as given in PMC1925066, “Optical biosensor differentiates signaling of endogenous PAR1 and PAR2 in A431 cells” (BMC Cell Biology, 2007).
Each block holds one compound with its values, some of them ahead of it. Where a SMILES comes first, the peptide text is derived from it.

Assays:
EGFR in A431 cells [1] = system: EGFR in A431 cells; design: method as in PMID 16766609; conditions: blockage of EGFR tyrosine kinase activity in A431; cited from earlier work
EGFR in A431 cells [2] = test: Interference of EGFR activation with PAR signaling, DMR signal; format: cell-based, human
From the text: (§1) A431 cells express large numbers of EGF receptors. AG1478 is a potent and selective EGFR tyrosine kinase inhibitor. It is also known that cholesterol removal by mβCD triggers a ligand-independent transactivation of EGFR in A431 cells. Thus, we were interested the interference of EGFR activation with PAR signaling. The preceding stimulation with EGF had little effect on the Ca^2+ mobilization induced by trypsin (Fig. 9a) or thrombin (data not shown).
(§2) Figure 9 The effect of preceding EGF stimulation on PAR signaling. (a) The Ca^2+ mobilization. (b, c) The DMR signals. The ligands were EGF (100 nM), trypsin (100 nM), and thrombin (40 unit/ml). The cell responses with the pre-treatment with the HBSS only were also included as control.
(§3) Corning® Epic™ angular interrogation system with transverse magnetic or p-polarized TM0 mode was used for all studies. The detailed instrumental setup and assay protocols had been previously described. Briefly, all compound solutions were prepared using 1 × HBSS containing minimal amount of dimethyl sulfoxide, while the starved cells were washed and maintained with 100 μl the serum-free DMEM. The cells were then treated with 50 μl 1 × HBSS buffered solution in the absence and presence of a compound, followed by stimulation with ligand solutions. The cellular responses were monitored in real time throughout the assays.

[3] = system: endogenous PAR1 and PAR2 in A431 cells; test: Fluo-3 Ca2+ mobilization (Ca2+ flux) assay in quiescent A431 cells; format: cell-based, human; conditions: for maximal [Ca^2+]i elevation: SFLLR-amide at 80 μM; for responsiveness (Ca^2+ mobilization) after pre-stimulation with thrombin: thrombin 40 unit/ml first; for Ca^2+ mobilization response after pre-stimulation with trypsin: trypsin 200 nM first, repeated stimulation separated by 6 min; for rapid and transient increase in intracellular Ca^2+: quiescent A431 cells
Protocol: (§4) Human epidermoid carcinoma A431 cells ([…]) were grown in Dulbecco's modified Eagle's medium (DMEM) supplemented with 10% fetal bovine serum (FBS), 4.5 g/liter glucose, 2 mM glutamine, and antibiotics. ~5 × 10^4 cells at passage 3 to 8 suspended in 200 μl the DMEM medium containing 10% FBS were placed in each well of a 96well microplate, and were cultured at 37°C under air/5% CO2 for ~2 days, followed by ~20 hr starvation through continuously culturing in the serum-free DMEM.
Cells were grown in Costar™ 96well clear cell culture microplates. After starvation, the cells were washed with 1× HBSS (1× regular Hank's balanced salt solution, 20 mM HEPES buffer, pH 7.0) in the presence of 2.5 mM probenicid, and labeled in the same buffer containing 4 μM Fluo-3 for 1 hour at room temperature. The cells were then washed twice with buffer, maintained with 100 μl 1× HBSS containing 2.5 mM probenicid. The assay was initiated by transferring 50 μl PAR agonist solution to the cell plate, and calcium signal was recorded over 6 minutes with a 6 sec interval using HTS7000 BioAssay Reader (PerkinElmer Life Science, Boston, MA). The fluorescent intensity before stimulation was recorded and used as a baseline. The percentage increase in fluorescence intensity after stimulation, relative to the baseline fluorescence, was analyzed and used directly as a measure for the increase of intracellular Ca^2+ level induced by PAR agonists.
(§5) Unless specifically mentioned, three replicates were carried out for each measurement or each compound. The standard deviation was derived from these measurements (n = 3). […] All dose-dependent responses were analyzed using non-linear regression method with the Prism software (Graph Pad).

[4] = system: endogenous PAR1 and PAR2 in A431 cells; test: MRCAT resonant waveguide grating biosensor DMR assay in quiescent A431 cells; format: cell-based, human; conditions: for effect of preceding stimulation on trypsin-induced DMR signal: trypsin 200 nM; for desensitization of trypsin-treated cells (DMR signal): trypsin 200 nM first, repeated stimulation separated by ~1 hr; for Gq-type DMR signal: quiescent A431 cells, 20 μM
Protocol: as §4, §3, §5

[5] = system: cell surface cholesterol of A431 cells; test: Effect of cholesterol depletion (cyclodextrin pre-treatment) on agonist-induced DMR signals; format: cell-based, human
Protocol: Similarly, the mβCD pre-treatment also led to a dose-dependent attenuation of the DMR signals induced by thrombin or trypsin (Fig. 7). However, there is a clear distinction between the inhibition curves of trypsin- and thrombin-induced DMR signals by mβCD. […] As expected, αCD up to 8 mM had little effect on both agonist-induced DMR responses. […] A23187 is a Ca^2+ ionophore, and is able to release stored Ca^2+ from the endoplasmic reticulum in cells.
Figure 7 Cholesterol removal attenuates the agonist-induced DMR signals. mβCD was used to deplete cell surface cholesterol. Its effect on the amplitudes of the P-DMR events induced by (a) thrombin (40 unit/ml) or (b) trypsin (200 nM) was analyzed. In comparison, the effect of αCD was also included. (c) The DMR signals of A431 cells induced by A23187 without or with the pre-treatment with 5 mM mβCD.
as §3

A431 cells = test: Cell toxicity / cell detachment from the biosensor surface; format: cell-based, human; conditions: high doses (>8 mM)
[6] = system: cell surface cholesterol of A431 cells; test: Effect of cholesterol depletion (cyclodextrin pre-treatment) on agonist-induced Ca2+ mobilization; format: cell-based, human; conditions: for IC50: one-phase decay fit
From the text: Since the physiological significance of co-expression of two receptors in A431 is unclear, we were interested in the possibility of differentiated regulation of PAR1 and PAR2 signaling. A common mechanism for the cell to regulate and differentiate receptor signaling is compartmentalization of receptors and/or their signaling components. Amassing evidences support the hypothesis that there are many cholesterol-rich microdomains at the cell surface membrane, although their characteristics are still under extensive investigations. Such microdomain is believed to enable the sorting and segregation of receptors and their signaling cascades, thus regulating cell signaling. Methyl-β-cyclodextrin (mβCD) has been widely used to extract cell surface choleterol primarily through effluxing, thus disrupting these cholesterol-rich microdomains. Thus, we examined the effect of cholesterol depletion by mβCD on both Ca^2+ mobilization and DMR responses induced by thrombin and trypsin. […] Both dose-dependent inhibition curves appeared fit well with a one-phase decay non-linear regression, leading to an almost identical half-concentration (C1/2 of ~1.5 mM) of mβCD. This is consistent with the fact that mβCD results in rapid effluxing of cell membrane cholesterol molecules; and the amount of remain cell surface cholesterol depends on the concentration of mβCD in solution [27]. The higher concentration mβCD is, the less cholesterol is retained at the cell surface membrane. […]
(§6) Cells were grown in Costar™ 96well clear cell culture microplates. […] The assay was initiated by transferring 50 μl PAR agonist solution to the cell plate, and calcium signal was recorded over 6 minutes with a 6 sec interval using HTS7000 BioAssay Reader (PerkinElmer Life Science, Boston, MA). The fluorescent intensity before stimulation was recorded and used as a baseline. The percentage increase in fluorescence intensity after stimulation, relative to the baseline fluorescence, was analyzed and used directly as a measure for the increase of intracellular Ca^2+ level induced by PAR agonists.

EGFR in A431 cells [7] = test: Interference of EGFR activation with PAR signaling, Ca2+ mobilization; format: cell-based, human; conditions: EGF 100 nM; trypsin 100 nM, thrombin 40 unit/ml
From the text: as §1, §2, §6

[8] = 100 nM, trypsin 100 nM, thrombin 40 unit/ml

Compound: COc1cc2ncnc(Nc3cccc(Cl)c3)c2cc1OC [AG1478]
effect on trypsin-induced DMR signal (EGFR in A431 cells [1]): partially attenuated
effect of pre-treatment on inhibition of trypsin-induced DMR by cholesterol depletion (EGFR in A431 cells [2]; data not shown): did not counter the inhibitory effect

EC50 ([3]; A431 cells, read-out: EC50 (n = 3) Ca^2+ flux assay): 3.8 ± 0.4 µM
EC50 ([4]; A431 cells, amplitude of N-DMR event, read-out: EC50 (n = 3) N-DMR): 9.1 ± 2.2 µM
EC50 ([4]; A431 cells, amplitude of P-DMR event, read-out: EC50 (n = 3) P-DMR): 6.1 ± 1 µM
Compound: CC[C@H](C)[C@H](NC(=O)[C@H](CC(C)C)NC(=O)[C@@H](N)CO)C(=O)NCC(=O)N[C@@H](CCCCN)C(=O)N[C@H](C(N)=O)C(C)C [SLIGKV-amide] (H-SLIGKV-NH2; N-terminus assumed)
maximal [Ca^2+]i elevation ([3]; A431 cells): 52 ± 6%
effect of preceding stimulation on trypsin-induced Ca^2+ mobilization ([3]; peptide 20 μM first, then trypsin 200 nM, separated by 6 min): partially attenuated
responsiveness (Ca^2+ mobilization) after pre-stimulation with thrombin ([3]; separated by 6 min): not
Ca^2+ mobilization response after pre-stimulation with trypsin [3]: completely blocked
DMR signals in cells with or without pre-stimulation with thrombin ([4]; separated by ~1 hr): almost identical DMR signals
effect of preceding stimulation on trypsin-induced DMR signal ([4]; separated by ~1 hr): only partially attenuated
desensitization of trypsin-treated cells (DMR signal) [4]: only partially

Compound: OC[C@H]1O[C@@H]2O[C@H]3[C@H](O)[C@@H](O)[C@@H](O[C@H]4[C@H](O)[C@@H](O)[C@@H](O[C@H]5[C@H](O)[C@@H](O)[C@@H](O[C@H]6[C@H](O)[C@@H](O)[C@@H](O[C@H]7[C@H](O)[C@@H](O)[C@@H](O[C@H]1[C@H](O)[C@H]2O)O[C@@H]7CO)O[C@@H]6CO)O[C@@H]5CO)O[C@@H]4CO)O[C@@H]3CO [αCD, α-cyclodextrin]
effect on both agonist-induced (thrombin, trypsin) DMR responses ([5]; up to 8 mM): little effect
cell toxicity and cell detachment from the biosensor surface (A431 cells): detectable cell toxicity
effect on trypsin and thrombin-induced Ca^2+ mobilization responses ([6]; up to 8 mM): little effect

Compound: GYPGQV
rapid and transient increase in intracellular Ca^2+ [3]: only PAR1 and PAR2 agonists resulted in
Gq-type DMR signal [4]: only PAR1 and PAR2 agonists resulted in

Compound: Methyl-β-cyclodextrin [mβCD]
effect on DMR signal induced by 5 μM A23187 ([5]; pre-treatment at 5 mM): little effect
IC50 ([5]; thrombin 40 unit/ml, P-DMR amplitude, read-out: C1/2 for suppression of thrombin-induced DMR): 1200 ± 300 µM
IC50 ([5]; trypsin 200 nM, 2-phase decay, read-out: C1/2 for inhibition of trypsin-mediated DMR, first phase): 5000 ± 1000 µM
IC50 ([5]; trypsin 200 nM, 2-phase decay, read-out: C1/2 for inhibition of trypsin-mediated DMR, second phase): 11000 ± 2000 µM
IC50 ([6]; thrombin 40 unit/ml, read-out: half-concentration (C1/2) for suppression of thrombin-induced Ca^2+ mobilization): ~1500 µM
IC50 ([6]; trypsin 200 nM, read-out: half-concentration (C1/2) for suppression of trypsin-induced Ca^2+ mobilization): ~1500 µM

Compound: TFRGAP
rapid and transient increase in intracellular Ca^2+ [3]: only PAR1 and PAR2 agonists resulted in
Gq-type DMR signal [4]: only PAR1 and PAR2 agonists resulted in

EC50 (n = 3) Ca^2+ flux assay ([3]; A431 cells): 6.0 ± 1.0 unit/ml
EC50 (n = 3) N-DMR ([4]; A431 cells, amplitude of N-DMR event): 11.0 ± 1.9 unit/ml
EC50 (n = 3) P-DMR ([4]; A431 cells, amplitude of P-DMR event): 9.6 ± 2.0 unit/ml
Compound: Thrombin: serine protease, PAR1 agonist, purchased from Sigma
maximal [Ca^2+]i elevation ([3]; A431 cells): 48 ± 4%
responsiveness (Ca^2+ mobilization) after pre-stimulation with thrombin ([3]; separated by 6 min): completely inhibited
Ca^2+ mobilization response after pre-stimulation with trypsin [3]: completely blocked
effect of preceding stimulation on trypsin-induced DMR signal ([4]; separated by ~1 hr): only partially attenuated
desensitization of trypsin-treated cells (DMR signal) [4]: completely desensitized

Compound: bradykinin (RPPGFSPFR; Bradykinin; UniProt P01042 381-389, looked up) [agonist for bradykinin B2 receptor]
Ca^2+ mobilization response after pre-stimulation with PAR agonists ([3]; bradykinin 100 nM, separated by 6 min): neither of PAR agonists examined had any effect
effect of preceding stimulation on DMR signal induced by any PAR agonist ([4]; bradykinin 100 nM first, separated by ~1 hr): no obvious effect
desensitization of trypsin-treated cells (DMR signal) [4]: not

Compound: epidermal growth factor (NSDSECPLSHDGYCLHDGVCMYIEALDKYACNCVVGYIGERCQYRDLKWWELR; UniProt P01133 971-1023, looked up) [EGF, epidermal growth factor, purchased from Sigma]
effect of preceding stimulation on Ca^2+ mobilization induced by trypsin or thrombin (EGFR in A431 cells [7]): little effect
effect on N-DMR event induced by either trypsin or thrombin (EGFR in A431 cells [2]; [8]): almost completely inhibited
effect on P-DMR event induced by either trypsin or thrombin (EGFR in A431 cells [2]; [8]): only slightly attenuated
